pIC50: −log10 of the molar value. Converted amounts (≈) assume the structure as drawn. Each block holds one molecule with its values, some of them ahead of it. The source made the active and inactive calls. The calls are words filed in the database; no cut-off is given here.
Columns and labels:
[1] = Inhibition of serotonin receptor (unknown origin); design: species or system Homo sapiens
[2] = Half life in monkey at 3 mg/kg, po; assay type: ADME, organism-based, Macaca mulatta; design: dose 3 mg/kg, route oral; conditions: rhesus monkey, in vivo
[3] = test system: Mus musculus; test: Reduction in triglycerides level in mouse at 3 mg/kg, po after 12 hrs by postprandial triglyceride assay; assay type: functional
[4] = AUC in mouse at 1 mg/kg, po; assay type: ADME, organism-based; design: dose 1 mg/kg, route oral; conditions: plasma
[5] = target: Caspase-8 (Homo sapiens, UniProt Q14790); test: Inhibition of CASP8 (unknown origin)
Caspase-8, sequence (Q14790 217-374 limits assumed): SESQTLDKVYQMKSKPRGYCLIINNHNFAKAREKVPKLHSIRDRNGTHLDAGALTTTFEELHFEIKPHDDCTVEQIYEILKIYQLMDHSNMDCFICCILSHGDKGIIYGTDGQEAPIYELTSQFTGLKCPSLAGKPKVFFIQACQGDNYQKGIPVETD
Caspase-8, sequence (Q14790 385-479 limits assumed): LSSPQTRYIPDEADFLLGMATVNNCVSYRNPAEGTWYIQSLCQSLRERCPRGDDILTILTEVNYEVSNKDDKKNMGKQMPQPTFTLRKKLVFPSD

[6] = AUC in monkey at 3 mg/kg, po; assay type: ADME, organism-based, Macaca mulatta; design: dose 3 mg/kg, route oral; conditions: rhesus monkey, plasma
[7] = AUC in rat at 10 mg/kg, po; assay type: ADME, organism-based; design: dose 10 mg/kg, route oral; conditions: plasma
[8] = test system: Hepatocyte; test: Clearance in human liver hepatocytes measured per million cells; assay type: ADME, cell-based
[9] = Cmax in dog at 2 mg/kg, po; assay type: ADME, organism-based, Canis lupus familiaris; design: dose 2 mg/kg, route oral; conditions: in vivo
[10] = Inhibition of purinergic receptor (unknown origin); design: species or system Homo sapiens
[11] = Plasma protein binding in human; assay type: ADME, cell-free; conditions: read-out: PPB
[12] = test system: Mus musculus; test: Reduction in triglycerides level in mouse at 3 mg/kg, po after 2 hrs by postprandial triglyceride assay; assay type: functional
[13] = Permeability in human Caco2 cells; assay type: ADME, cell-based; conditions: Caco-2, read-out: permeability
[14] = Cmax in mouse at 1 mg/kg, po; assay type: ADME, organism-based; design: dose 1 mg/kg, route oral; conditions: in vivo
[15] = AUC in dog at 2 mg/kg, po; assay type: ADME, organism-based, Canis lupus familiaris; design: dose 2 mg/kg, route oral; conditions: plasma
[16] = test system: Mus musculus; test: Induction of weight loss in diet-induced obese C57BL/6J mouse assessed as decrease in body weight at 30 mg/kg, po qd measured during 11 day chronic study; assay type: functional; conditions: 264 h
[17] = Half life in mouse at 1 mg/kg, po; assay type: ADME, organism-based; design: dose 1 mg/kg, route oral; conditions: in vivo
[18] = Plasma protein binding in mouse; assay type: ADME; conditions: read-out: PPB
[19] = test system: Mus musculus; test: Induction of weight loss in diet-induced obese C57BL/6J mouse assessed as reduction in food intake at 30 mg/kg, po qd measured during 1 to 4 days; assay type: functional, organism-based; design: dose 30 mg/kg
[20] = target: Cannabinoid receptor 1 (Homo sapiens, UniProt P21554); test: Inhibition of CB1 receptor (unknown origin)
Cannabinoid receptor 1, sequence (P21554 whole entry): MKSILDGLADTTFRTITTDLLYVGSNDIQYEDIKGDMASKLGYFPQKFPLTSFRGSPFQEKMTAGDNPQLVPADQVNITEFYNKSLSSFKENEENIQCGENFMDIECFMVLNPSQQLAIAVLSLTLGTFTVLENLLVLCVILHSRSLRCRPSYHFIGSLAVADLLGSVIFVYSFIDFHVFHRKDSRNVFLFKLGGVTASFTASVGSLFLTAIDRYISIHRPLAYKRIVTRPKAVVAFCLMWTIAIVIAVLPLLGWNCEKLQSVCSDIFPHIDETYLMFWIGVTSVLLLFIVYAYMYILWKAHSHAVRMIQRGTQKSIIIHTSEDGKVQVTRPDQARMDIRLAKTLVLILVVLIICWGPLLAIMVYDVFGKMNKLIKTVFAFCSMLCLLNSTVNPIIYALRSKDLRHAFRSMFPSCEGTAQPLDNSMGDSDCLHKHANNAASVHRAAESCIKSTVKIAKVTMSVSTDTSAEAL

[21] = target: D(2) dopamine receptor (Homo sapiens, UniProt P14416); test: Inhibition of D2 receptor (unknown origin)
D(2) dopamine receptor, sequence (P14416 whole entry): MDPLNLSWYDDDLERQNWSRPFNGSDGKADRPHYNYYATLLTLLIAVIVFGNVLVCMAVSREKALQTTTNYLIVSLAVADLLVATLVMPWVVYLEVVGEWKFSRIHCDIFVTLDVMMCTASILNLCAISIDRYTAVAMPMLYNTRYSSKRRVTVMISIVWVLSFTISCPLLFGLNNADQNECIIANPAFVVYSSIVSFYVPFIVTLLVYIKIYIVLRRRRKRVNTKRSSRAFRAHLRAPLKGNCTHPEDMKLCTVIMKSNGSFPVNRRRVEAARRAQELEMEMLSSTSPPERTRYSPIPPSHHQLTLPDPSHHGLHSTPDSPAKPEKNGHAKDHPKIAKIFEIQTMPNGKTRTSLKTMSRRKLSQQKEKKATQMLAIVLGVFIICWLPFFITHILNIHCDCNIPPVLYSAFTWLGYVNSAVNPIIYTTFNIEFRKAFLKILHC

[22] = target: T1, Diacylglycerol O-acyltransferase 1 (Mus musculus, UniProt Q9Z2A7); test: Inhibition of mouse DGAT1 expressed in Sf9 insect cells using 1,2-dioleoyl-sn-glycerol and [14C]-palmitoyl-CoA substrate by scintillation counting analysis
T1 sequence (Q9Z2A7 whole entry): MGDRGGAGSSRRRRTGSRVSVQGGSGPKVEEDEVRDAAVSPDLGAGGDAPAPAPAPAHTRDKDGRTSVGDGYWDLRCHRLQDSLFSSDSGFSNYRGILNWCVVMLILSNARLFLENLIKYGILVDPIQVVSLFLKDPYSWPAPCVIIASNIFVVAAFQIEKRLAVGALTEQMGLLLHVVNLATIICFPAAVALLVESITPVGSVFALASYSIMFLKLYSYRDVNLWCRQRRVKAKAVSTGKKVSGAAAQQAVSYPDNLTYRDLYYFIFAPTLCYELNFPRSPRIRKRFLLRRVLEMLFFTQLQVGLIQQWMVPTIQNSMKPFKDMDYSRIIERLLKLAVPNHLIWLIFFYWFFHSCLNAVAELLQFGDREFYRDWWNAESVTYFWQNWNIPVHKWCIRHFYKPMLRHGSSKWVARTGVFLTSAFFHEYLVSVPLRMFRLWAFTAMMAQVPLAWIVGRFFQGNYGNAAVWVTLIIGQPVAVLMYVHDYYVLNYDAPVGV

[23] = Cmax in rat at 10 mg/kg, po; assay type: ADME, organism-based; design: dose 10 mg/kg, route oral; conditions: in vivo
[24] = Clearance in mouse liver hepatocytes measured per million cells; assay type: ADME, Hepatocyte; conditions: read-out: CLH
[25] = Oral bioavailability in mouse at 1 mg/kg; assay type: ADME, organism-based; conditions: in vivo
[26] = target: Prostacyclin receptor (Homo sapiens, UniProt P43119); test: Inhibition of prostanoid IP receptor (unknown origin)
Prostacyclin receptor, sequence (P43119 whole entry): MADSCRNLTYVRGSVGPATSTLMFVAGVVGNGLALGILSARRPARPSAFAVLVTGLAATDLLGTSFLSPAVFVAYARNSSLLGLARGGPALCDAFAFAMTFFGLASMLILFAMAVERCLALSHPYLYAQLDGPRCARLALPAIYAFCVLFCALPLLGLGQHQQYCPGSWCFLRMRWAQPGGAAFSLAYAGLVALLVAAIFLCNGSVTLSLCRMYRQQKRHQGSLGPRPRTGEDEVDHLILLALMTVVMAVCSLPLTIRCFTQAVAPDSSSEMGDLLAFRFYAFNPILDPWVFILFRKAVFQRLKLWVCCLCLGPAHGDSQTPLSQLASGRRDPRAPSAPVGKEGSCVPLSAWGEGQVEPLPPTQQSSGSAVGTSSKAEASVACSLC

[27] = Half life in dog at 2 mg/kg, po; assay type: ADME, organism-based, Canis lupus familiaris; design: dose 2 mg/kg, route oral; conditions: in vivo
[28] = Inhibition of CCK receptor (unknown origin); design: species or system Homo sapiens
[29] = target: Insulin receptor (Homo sapiens, UniProt P06213); test: Inhibition of insulin receptor (unknown origin)
Insulin receptor, sequence (P06213 28-758 limits assumed): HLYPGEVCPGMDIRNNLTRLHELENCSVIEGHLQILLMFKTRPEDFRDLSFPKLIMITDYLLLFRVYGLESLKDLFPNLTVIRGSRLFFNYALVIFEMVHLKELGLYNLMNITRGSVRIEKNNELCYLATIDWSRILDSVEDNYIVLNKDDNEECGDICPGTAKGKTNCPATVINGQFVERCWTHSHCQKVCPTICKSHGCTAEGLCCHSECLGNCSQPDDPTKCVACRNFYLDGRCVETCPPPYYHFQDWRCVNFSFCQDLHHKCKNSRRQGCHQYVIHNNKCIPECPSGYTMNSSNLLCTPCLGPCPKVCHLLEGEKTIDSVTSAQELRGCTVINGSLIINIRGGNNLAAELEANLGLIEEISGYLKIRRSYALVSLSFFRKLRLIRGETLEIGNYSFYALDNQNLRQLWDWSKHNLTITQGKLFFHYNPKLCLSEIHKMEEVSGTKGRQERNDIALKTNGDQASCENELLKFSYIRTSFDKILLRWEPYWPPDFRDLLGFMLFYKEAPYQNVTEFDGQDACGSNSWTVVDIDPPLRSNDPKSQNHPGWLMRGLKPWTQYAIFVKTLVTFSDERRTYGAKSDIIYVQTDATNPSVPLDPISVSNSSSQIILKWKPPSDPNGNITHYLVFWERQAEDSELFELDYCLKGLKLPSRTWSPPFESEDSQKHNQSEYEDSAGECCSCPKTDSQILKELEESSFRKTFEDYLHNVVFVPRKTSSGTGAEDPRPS
Insulin receptor, sequence (P06213 763-1382 limits assumed): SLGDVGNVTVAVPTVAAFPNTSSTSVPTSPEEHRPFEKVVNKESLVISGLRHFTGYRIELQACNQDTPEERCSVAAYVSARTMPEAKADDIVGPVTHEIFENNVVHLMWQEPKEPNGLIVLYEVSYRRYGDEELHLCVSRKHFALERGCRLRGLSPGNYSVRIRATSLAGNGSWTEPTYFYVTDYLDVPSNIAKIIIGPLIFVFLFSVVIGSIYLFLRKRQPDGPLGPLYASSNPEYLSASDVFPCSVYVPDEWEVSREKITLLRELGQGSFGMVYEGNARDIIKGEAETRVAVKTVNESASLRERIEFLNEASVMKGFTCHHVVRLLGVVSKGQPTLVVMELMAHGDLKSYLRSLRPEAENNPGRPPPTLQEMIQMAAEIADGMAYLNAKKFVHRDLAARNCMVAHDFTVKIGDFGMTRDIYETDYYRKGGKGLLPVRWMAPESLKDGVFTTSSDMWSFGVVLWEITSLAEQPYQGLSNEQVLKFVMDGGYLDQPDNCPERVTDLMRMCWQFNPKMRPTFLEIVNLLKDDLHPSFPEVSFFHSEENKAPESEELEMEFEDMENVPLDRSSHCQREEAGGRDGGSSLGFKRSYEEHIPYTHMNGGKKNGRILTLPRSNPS

[30] = Clearance in dog liver hepatocytes measured per million cells; assay type: ADME, Canis lupus familiaris, Hepatocyte; conditions: read-out: CLH
[31] = target: Epidermal growth factor receptor (Homo sapiens, UniProt P00533); test: Inhibition of EGF receptor (unknown origin)
Epidermal growth factor receptor, sequence (P00533 whole entry): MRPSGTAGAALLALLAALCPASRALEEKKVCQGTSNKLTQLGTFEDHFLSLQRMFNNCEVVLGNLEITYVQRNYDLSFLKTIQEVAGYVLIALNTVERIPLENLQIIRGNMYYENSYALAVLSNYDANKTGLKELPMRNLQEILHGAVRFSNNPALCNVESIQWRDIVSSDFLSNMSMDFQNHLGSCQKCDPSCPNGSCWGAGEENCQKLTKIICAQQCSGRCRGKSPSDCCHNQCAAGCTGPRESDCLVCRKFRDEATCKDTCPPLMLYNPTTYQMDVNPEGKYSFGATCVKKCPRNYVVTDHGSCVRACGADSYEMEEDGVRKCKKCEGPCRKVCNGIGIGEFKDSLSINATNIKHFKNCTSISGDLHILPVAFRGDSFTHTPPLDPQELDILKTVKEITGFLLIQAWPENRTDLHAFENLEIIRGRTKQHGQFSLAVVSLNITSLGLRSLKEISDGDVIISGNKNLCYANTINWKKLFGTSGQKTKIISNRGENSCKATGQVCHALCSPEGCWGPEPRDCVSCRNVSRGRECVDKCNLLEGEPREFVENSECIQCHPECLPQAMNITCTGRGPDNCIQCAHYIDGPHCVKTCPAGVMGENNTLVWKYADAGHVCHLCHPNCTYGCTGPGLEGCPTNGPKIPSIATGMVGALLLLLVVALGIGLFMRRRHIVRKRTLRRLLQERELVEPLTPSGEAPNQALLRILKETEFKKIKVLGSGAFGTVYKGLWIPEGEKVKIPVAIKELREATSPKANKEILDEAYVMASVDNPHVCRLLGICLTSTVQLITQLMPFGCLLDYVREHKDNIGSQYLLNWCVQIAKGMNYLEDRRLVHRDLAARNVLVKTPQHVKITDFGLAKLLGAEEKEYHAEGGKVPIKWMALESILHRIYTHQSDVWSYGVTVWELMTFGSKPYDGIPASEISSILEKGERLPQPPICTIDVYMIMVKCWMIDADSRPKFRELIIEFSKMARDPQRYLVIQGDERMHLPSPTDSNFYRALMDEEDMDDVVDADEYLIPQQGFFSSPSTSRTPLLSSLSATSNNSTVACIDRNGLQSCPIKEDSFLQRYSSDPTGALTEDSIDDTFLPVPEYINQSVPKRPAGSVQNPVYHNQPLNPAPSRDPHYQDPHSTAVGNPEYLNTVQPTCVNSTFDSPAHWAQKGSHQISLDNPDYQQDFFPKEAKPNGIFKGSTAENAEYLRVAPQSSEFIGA

[32] = Solubility in plasma (unknown origin) at pH 7; assay type: ADME, cell-free
[33] = Inhibition of histamine receptor (unknown origin); design: species or system Homo sapiens
[34] = Clearance in monkey liver hepatocytes measured per million cells; assay type: ADME, Macaca mulatta, Hepatocyte; conditions: rhesus monkey, read-out: CLH
[35] = target: T2, Diacylglycerol O-acyltransferase 1 (Homo sapiens, UniProt O75907); test: Inhibition of human DGAT1 expressed in Sf9 insect cells using 1,2-dioleoyl-sn-glycerol and [14C]-palmitoyl-CoA substrate by scintillation counting analysis
T2 sequence (O75907 whole entry): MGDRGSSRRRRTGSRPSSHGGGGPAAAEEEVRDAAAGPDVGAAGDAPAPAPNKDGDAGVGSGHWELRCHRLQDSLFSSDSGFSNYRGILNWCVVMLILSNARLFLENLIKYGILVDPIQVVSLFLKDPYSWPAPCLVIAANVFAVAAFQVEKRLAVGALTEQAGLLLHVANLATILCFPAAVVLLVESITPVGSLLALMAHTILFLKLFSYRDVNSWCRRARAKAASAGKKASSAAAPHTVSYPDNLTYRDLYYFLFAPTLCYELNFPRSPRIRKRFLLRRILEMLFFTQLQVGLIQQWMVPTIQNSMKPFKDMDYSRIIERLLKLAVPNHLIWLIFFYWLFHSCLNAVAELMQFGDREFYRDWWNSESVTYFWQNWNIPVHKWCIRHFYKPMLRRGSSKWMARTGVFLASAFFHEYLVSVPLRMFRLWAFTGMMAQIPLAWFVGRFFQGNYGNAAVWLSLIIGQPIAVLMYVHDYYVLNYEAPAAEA

[36] = Clearance in rat liver hepatocytes measured per million cells; assay type: ADME, cell-based, Hepatocyte; conditions: read-out: CLH
[37] = Oral bioavailability in rat at 10 mg/kg; assay type: ADME, organism-based; conditions: in vivo
[38] = target: T3, Caspase-9 (Homo sapiens, UniProt P55211); test: Inhibition of CASP9 (unknown origin)
T3 sequence (P55211 whole entry): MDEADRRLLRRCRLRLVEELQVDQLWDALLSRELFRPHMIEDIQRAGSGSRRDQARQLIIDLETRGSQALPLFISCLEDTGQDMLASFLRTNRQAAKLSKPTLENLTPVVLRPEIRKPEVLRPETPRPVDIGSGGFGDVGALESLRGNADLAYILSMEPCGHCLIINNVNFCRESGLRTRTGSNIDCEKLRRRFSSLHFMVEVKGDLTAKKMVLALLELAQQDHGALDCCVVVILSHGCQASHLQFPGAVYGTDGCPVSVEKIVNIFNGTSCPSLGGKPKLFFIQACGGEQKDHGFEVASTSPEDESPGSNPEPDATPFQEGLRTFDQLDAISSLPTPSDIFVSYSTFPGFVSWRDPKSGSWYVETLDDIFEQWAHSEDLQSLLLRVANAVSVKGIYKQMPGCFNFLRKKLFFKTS

[39] = Cmax in monkey at 3 mg/kg, po; assay type: ADME, organism-based, Macaca mulatta; design: dose 3 mg/kg, route oral; conditions: rhesus monkey, in vivo
[40] = Inhibition of neuropeptide Y receptor (unknown origin); design: species or system Homo sapiens
[41] = Half life in rat at 10 mg/kg, po; assay type: ADME, organism-based; design: dose 10 mg/kg, route oral; conditions: in vivo
[42] = test system: Mus musculus; test: Reduction in triglycerides level in mouse at 0.3 mg/kg, po after 2 hrs by postprandial triglyceride assay; assay type: functional
[43] = test system: Mus musculus; test: Reduction in triglycerides level in mouse at 1 mg/kg, po after 2 hrs by postprandial triglyceride assay; assay type: functional
[44] = Total AUC in rat at 10 mg/kg; assay type: ADME, organism-based; design: time AUCmax, dose 10 mg/kg; conditions: in vivo
[45] = target: Cytochrome P450 2C9 (Homo sapiens, UniProt P11712); test: Inhibition of CYP2C9 (unknown origin)
Cytochrome P450 2C9, sequence (P11712 whole entry): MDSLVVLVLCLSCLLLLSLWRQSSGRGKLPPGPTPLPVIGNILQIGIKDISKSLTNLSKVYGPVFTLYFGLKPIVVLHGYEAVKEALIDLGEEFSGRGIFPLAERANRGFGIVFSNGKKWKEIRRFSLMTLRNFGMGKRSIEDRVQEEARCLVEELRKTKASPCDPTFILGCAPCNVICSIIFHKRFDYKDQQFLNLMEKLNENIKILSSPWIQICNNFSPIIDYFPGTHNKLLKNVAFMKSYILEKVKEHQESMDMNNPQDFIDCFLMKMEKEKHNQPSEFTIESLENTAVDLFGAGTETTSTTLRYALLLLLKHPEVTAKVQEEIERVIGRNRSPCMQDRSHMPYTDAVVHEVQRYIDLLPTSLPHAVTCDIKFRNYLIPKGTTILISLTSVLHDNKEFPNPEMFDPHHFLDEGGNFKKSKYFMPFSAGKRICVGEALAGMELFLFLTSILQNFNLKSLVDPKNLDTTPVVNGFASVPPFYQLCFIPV

pIC50 [1]: < 5.00
half-life [2]: 3 h
AUC [4]: 3.7 µM·h
pIC50 [5]: 5.17
AUC [6]: 64 µM·h
AUC [7]: 41 µM·h
CLH [8]: 14 µL/min/1e6 cells
Cmax [9]: 3.3 µM
pIC50 [10]: < 5.00
fraction unbound [11]: < 0.005
Papp [13]: 201 nm/s
Cmax [14]: 0.6 µM
AUC [15]: 23 µM·h
half-life [17]: 6.2 h
fraction unbound [18]: < 0.005
pIC50 [20]: < 5.00
pIC50 [21]: < 5.00
pIC50 [22]: 7.36
Cmax [23]: 9.1 µM
hepatocyte CLint [24]: 6.2 µL/min/1e6 cells
bioavailability [25]: 89%
pIC50 [26]: 6.00
half-life [27]: 3 h
pIC50 [28]: < 5.00
pIC50 [29]: 5.24
hepatocyte CLint [30]: 16 µL/min/1e6 cells
pIC50 [31]: 5.12
solubility [32]: 50 µM (≈ 25.6 µg/mL)
pIC50 [33]: < 5.00
hepatocyte CLint [34]: 14 µL/min/1e6 cells
pIC50 [35]: 7.19
hepatocyte CLint [36]: 10 µL/min/1e6 cells
bioavailability [37]: 75%
pIC50 [38]: 5.30
Cmax [39]: 5.7 µM
pIC50 [40]: < 5.00
half-life [41]: 3 h
SMILES: CCc1ccccc1NC(=O)N1C[C@@H](C)Oc2cc(-c3ccc([C@H]4CC[C@H](CC(=O)O)CC4)cc3)ccc21
inhibition in vivo at 3 mg/kg [3]: 87%
inhibition in vivo at 3 mg/kg [12]: 93%
inhibition in vivo at 30 mg/kg [16]: > 5%
Activity [19]: Active

AUC [44]: 46 µM·h
pIC50 [22]: 7.14
pIC50 [45]: 6.30
SMILES: CCC1CN(C(=O)Nc2ccccc2)c2ccc(-c3ccc(OCC(C)(C)C(=O)O)nc3)cc2O1 (stereo unspecified)
inhibition in vivo at 0.3 mg/kg [42]: 73%
inhibition in vivo at 1 mg/kg [43]: 100%

From ChEMBL document CHEMBL3286266, “Development of novel benzomorpholine class of diacylglycerol acyltransferase I inhibitors” (ACS Med Chem Lett, 2014)
